From patent US20240277743A1, “RESTORING PHYSIOLOGY WITH SMALL MOLECULE MIMICS OF MISSING PROTEINS” (The Board of Trustees Of The University Of Illinois, priority 2014, published 2024)

Columns and labels:
[1] = tested on: trk1Δtrk2Δ S. cerevisiae; assay: Growth of trk1Δtrk2Δ yeast on normal potassium YPAD agar plates containing AmB; type: cell-based, Saccharomyces cerevisiae; details: 125 nM in agar, normal potassium (10 mM)
Method: Yeast cell lines and growth conditions. Wild type S. cerevisiae (ATCC 9763), and trk1Δtrk2Δ S. cerevisiae (SGY 1528) were maintained with yeast peptone adenine dextrose (YPAD) growth media consisting of 10 g/L yeast extract, 20 g/L peptone, 20 g/L dextrose, 0.015 g/L adenine hemisulfate salt (final potassium concentration=10 mM). For solid media, 20 g/L agar was added to this same mixture. To culture trk1 Δtrk2Δ S. cerevisiae, additional potassium was added as potassium chloride (100 mM KCl). The media was adjusted to pH 5.0 using citric acid. After autoclave sterilization, dextrose was subsequently added as a sterile 20% w/v solution in water (dextrose solutions were filter-sterilized using a 0.22 μm filter). Liquid cultures were incubated at 30° C. on a rotary shaker (200 rpm). Solid cultures were maintained at 30° C. in an incubator. For solid media containing AmB (AK Scientific), the media was allowed to cool for 15 minutes before addition of AmB at a final concentration of 125 nM. AmB was added to the media as a solution in DMSO. Plates were examined for growth after 24-48 hours of incubation.

[2] = tested on: trk1Δtrk2Δ cells; assay: Disc diffusion assay of growth rescue; type: cell-based, Saccharomyces cerevisiae; details: paper disc impregnated with AmB; FIG. 2C
Method: Disc diffusion assay. The assay was performed as previously described. National Committee for Clinical Laboratory Standards in Performance Standards for Antimicrobial Disk Susceptibility Tests; M2-A8 Approved Standard (NCCLS, Wayne) (2003).

[3] = tested on: small molecule-rescued trk1Δtrk2Δ cells versus wild type; assay: Probing sensitivities to known chemical inhibitors assay; type: cell-based, Saccharomyces cerevisiae; details: FIG. 3E legend
Method: Probing sensitivities to known chemical inhibitors assay. Overnight cultures were grown as described in the MIC assay. Prior to harvesting cells, small molecules AmB, nystatin A1 (Riedel-de-Haen), candicidin (TOKU-E), or mepartricin (Santa Cruz Biotechnology) and chemical inhibitors nocodazole (Sigma-Aldrich), ebselen (Cayman Chemical), or bafilomycin BI (Santa Cruz Biotechnology were prepared as stock solutions in DMSO. Saturated cell cultures were centrifuged for 5 minutes at 1000×g. The supernatant was poured off, and cells were resuspended in sterile MilliQ water. Cells were centrifuged again, and supernatant was poured off. The wash step was repeated. The supernatant was poured off, and cells were resuspended in normal potassium YPAD. Cells were diluted with normal potassium YPAD to an OD600 of 0.01. Next, an appropriate volume of AmB, nystatin A1, candicidin, or mepartricin was added to give a final rescuing concentration of 125 nM, 1000 nM, 8 nM, and 8 nM, respectively. A control was prepared by adding the corresponding volume of DMSO to trk1Δtrk2Δ cells. 195 μL of WT+small molecule, 195 μL of trk1Δtrk2Δ+small molecule, and 195 μL of trk1Δtrk2Δ+DMSO were added to a 96 well plate. Next, 5 μL of DMSO or chemical inhibitor was added to each well, with each concentration tested in triplicate for both WT and trk1Δtrk2Δ . The plate was covered and incubated at 30° C. for 24 hours. A BioTek Synergy H1 Hybrid Reader was used to measure the OD600. Utilizing GraphPad PRISM, data were fitted by nonlinear regression, inhibition dose response, variable slope (four parameters) to yield EC50 values with SEM. For statistical analysis, EC50 values from the two treatment groups were compared by unpaired t-test.

[4] = tested on: CuFi-1 epithelial monolayers (CFTR-deficient human lung epithelia); assay: Airway surface liquid (ASL) height studies by confocal fluorescence microscopy; type: cell-based
Method: Human cell lines and growth conditions. NuLi and CuFi-1 cells were cultured at the air-liquid interface as previously described, using a 1:1 mixture of DMEM: Ham's F-12 supplemented with 2% v/v Ultroser G (Crescent Chemical). Zabner, J. et al. Am. J. Physiol. Lung Cell. Mol. Physiol. 284, […]-[…] (2003). The membrane supports used were Millicell 0.4 μm PCF inserts (Millipore PIHP01250) for Ussing chamber studies, Corning Costar 0.4 μm Transwell Clear Polyester Membrane inserts (Corning 3470) for rotational mucus transport studies, and Millicell 1.0 μm PCF inserts (Millipore PIRP15R48) for ASL studies. These membranes were allowed to mature at an air-liquid interface for a minimum of 14 days to reach full differentiation. Airway surface liquid (ASL) height studies. ASL height was studied using an established fluorescent dye assay. Worthington, E. N. et al. Methods Mol. Biol. 742, 77-92 (2011); Myerburg. M. M. et al. Am. J. Respir. Cell. Mol. Biol. 42, 676-684 (2010). Mature, differentiated membranes were grown on Millicell […] polyethylene terephthalate hanging cell culture inserts. Wild type (NuLi) lung epithelia were treated with perfluorocarbon (FC-72) vehicle, and CuFi epithelia were treated with vehicle or 500 nM AmB and incubated for 24 hours at 37° ° C. On the day of imaging. 2.5 μL of a 70 kDa Texas Red-dextran conjugate (Molecular Probes) solution in PBS was added to the apical side of the membranes, followed by 100 μL of FC-770 to prevent evaporation. These were placed on 100 μL of PBS on a 10 mm glass bottom Fluorodish for imaging (World Precision Instruments). Membranes were imaged immediately after dye addition and again at 24 hours to examine dye absorption. Three Z-stack images per membrane in biological n=6 were taken on an Zeiss LSM700 confocal microscope at 40× oil immersion. These images were analyzed using ImageJ to determine the area of fluorescence in the left hand 200-micron width of each image. Images were converted to 8-bit, Gaussian Blur was applied, and made binary. The parameters for Analyze Particles were particles from 1-Infinity μm^2 in size and from 0%-100% circularity.

In the case of `C[C@@H]1[C@H](O)[C@@H](C)/C=C/C=C/C=C/C=C/C=C/C=C/C=C/[C@H](O[C@@H]2O[C@H](C)[C@@H](O)[C@H](N)[C@@H]2O)C[C@@H]2O[C@](O)(C[C@@H](O)C[C@@H](O)[C@H](O)CC[C@@H](O)C[C@@H](O)CC(=O)O[C@H]1C)C[C@H](O)[C@H]2C(=O)O` [AmB, amphotericin B], the “restoration of growth of the trk1Δtrk2Δ mutant on agar plate” value [1] is reported as “restored vigorous growth”, the “growth rescue in disc diffusion assay” value [2] is reported as “dependence of the growth rescue on the concentration of AmB” and the “optimum rescue concentration for trk1Δtrk2Δ cells” value [3] is reported as 0.5 µM. The “apical surface liquid (ASL) volume of CF epithelia” value ([4]; 500 nM) was “normal ASL volume was restored”, the “ASL height of CuFi-1 epithelia, compound added apically” value ([4]; 500 nM AmB, 24 hours, FIGS. 5A, 5B) was “normal ASL height was restored” and the “dose dependence of ASL restoration” value ([4]; CuFi-1 epithelia, FIG. 5C) was “dose-dependent fashion”. The “optimal dose for ASL restoration” value ([4]; CuFi-1 epithelia, FIG. 5C) was 0.5 µM and the “ASL height of CuFi-1 epithelia, compound added to the basolateral surface” value ([4]; FIG. 5B) was “no increase in ASL height”.
